# Results from patent US20180085330A1, “Dose Adjustment” (AbbVie Inc., priority 2016, published 2018).
# Read-outs that look alike come from different tables or passages of the source.
# Key:
# [1] = Drug interaction studies: pharmacokinetic parameters of coadministered drug in the presence of glecaprevir/pibrentasvir; type: in vivo, human
# Experimental: Drug interaction studies were performed with glecaprevir/pibrentasvir and other drugs that are likely to be coadministered and with drugs commonly used as probes for pharmacokinetic interactions.
# [2] = cited from earlier work
# [3] = EE/Levonorgestrel 20 μg/100 μg once daily, GLE/PIB 300/120 mg once daily
# [4] = EE/Norgestimate 35 μg/250 μg once daily, GLE/PIB 300/120 mg once daily
# [5] = dextromethorphan hydrobromide 30 mg single dose, GLE/PIB 300/120 mg once daily
# [6] = EVG/COBI/FTC/TAF 150/150/200/10 mg once daily, GLE/PIB 300/120 mg once daily
# [7] = sofosbuvir 400 mg once daily, GLE/PIB 400/120 mg once daily
# [8] = losartan 50 mg single dose, GLE/PIB 300/120 mg once daily
# [9] = lovastatin 10 mg once daily, GLE/PIB 300/120 mg once daily
# [10] = omeprazole 20 mg single dose, GLE/PIB 300/120 mg once daily
# [11] = raltegravir 400 mg twice daily, GLE/PIB 300/120 mg once daily
# [12] = rilpivirine 25 mg once daily, GLE/PIB 300/120 mg once daily
# [13] = simvastatin 5 mg once daily, GLE/PIB 300/120 mg once daily
# [14] = tacrolimus 1 mg single dose, GLE/PIB 300/120 mg once daily
# [15] = EFV/FTC/TDF 300/200/300 mg once daily, GLE/PIB 300/120 mg once daily
# [16] = valsartan 80 mg single dose, GLE/PIB 300/120 mg once daily
# [17] = dabigatran etexilate 150 mg single dose, GLE/PIB 300/120 mg once daily
# [18] = pravastatin coadministered with clarithromycin
# [19] = pravastatin 10 mg once daily, GLE/PIB 400/120 mg once daily
# [20] = rosuvastatin coadministered with lopinavir/ritonavir
# [21] = rosuvastatin 5 mg once daily, GLE/PIB 400/120 mg once daily
smiles,measurement,setting,value
C#CC1(O)CC[C@H]2[C@@H]3CCC4=CC(=O)CC[C@@H]4[C@H]3CC[C@@]21CC (mixture of isomers) [Norgestrel],Central Value Ratio (90% CI) AUC,[1]; [3],1.68
same,Central Value Ratio (90% CI) Cmax,[1]; [3],1.37
same,Central Value Ratio (90% CI) Cmin,[1]; [3],1.77
same,Central Value Ratio (90% CI) AUC,[1]; [4],1.63
same,Central Value Ratio (90% CI) Cmax,[1]; [4],1.54
same,Central Value Ratio (90% CI) Cmin,[1]; [4],1.75
C#C[C@]1(O)CC[C@H]2[C@@H]3CCC4=CC(=NO)CC[C@@H]4[C@H]3CC[C@@]21CC (mixture of isomers) [Norgestromin],Central Value Ratio (90% CI) AUC,[1]; [4],1.44
same,Central Value Ratio (90% CI) Cmin,[1]; [4],1.45
Nc1nc(NC2CC2)c2ncn([C@H]3C=C[C@@H](CO)C3)c2n1 [Abacavir],Central Value Ratio (90% CI) Cmin,"[1]; ABC/DTG/3TC 600/50/300 mg once daily, GLE/PIB 300/120 mg once daily",1.31
Cn1c(=O)c2c(ncn2C)n(C)c1=O [Caffeine],Central Value Ratio (90% CI) AUC,"[1]; caffeine 100 mg single dose, GLE/PIB 300/120 mg once daily",1.35
COc1ccc2c(c1)[C@]13CCCC[C@@H]1[C@H](C2)N(C)CC3 [Dextromethorphan],Central Value Ratio (90% CI) AUC,[1]; [5],0.75
same,Central Value Ratio (90% CI) Cmax,[1]; [5],0.70
COc1cc2c(cc1Cc1cccc(Cl)c1F)c(=O)c(C(=O)O)cn2[C@H](CO)C(C)C [Elvitegravir],Central Value Ratio (90% CI) AUC,[1]; [6],1.47
same,Central Value Ratio (90% CI) Cmax,[1]; [6],1.36
same,Central Value Ratio (90% CI) Cmin,[1]; [6],1.71
"C#C[C@]1(O)CC[C@H]2[C@@H]3CCc4cc(O)ccc4[C@H]3CC[C@@]21C [Ethinyl estradiol (EE), Ethinyl estradiol]",Central Value Ratio (90% CI) AUC,[1]; [3],1.40
same,Central Value Ratio (90% CI) Cmax,[1]; [3],1.30
same,Central Value Ratio (90% CI) Cmin,[1]; [3],1.56
same,Central Value Ratio (90% CI) AUC,[1]; [4],1.28
same,Central Value Ratio (90% CI) Cmax,[1]; [4],1.31
same,Central Value Ratio (90% CI) Cmin,[1]; [4],1.38
C[C@@]1(F)[C@H](O)[C@@H](CO)O[C@H]1n1ccc(=O)[nH]c1=O [GS-331007],Central Value Ratio (90% CI) Cmin,[1]; [7],1.85
CCCCc1nc(Cl)c(CO)n1Cc1ccc(-c2ccccc2-c2nn[nH]n2)cc1 [Losartan],Central Value Ratio (90% CI) AUC,[1]; [8],1.56
same,Central Value Ratio (90% CI) Cmax,[1]; [8],2.51
CC[C@H](C)C(=O)O[C@H]1C[C@@H](C)C=C2C=C[C@H](C)[C@H](CC[C@@H](O)C[C@@H](O)CC(=O)O)[C@H]21 [Lovastatin acid],Central Value Ratio (90% CI) AUC,[1]; [9],4.10
same,Central Value Ratio (90% CI) Cmax,[1]; [9],5.73
Cc1ncc2n1-c1ccc(Cl)cc1C(c1ccccc1F)=NC2 [Midazolam],Central Value Ratio (90% CI) AUC,"[1]; midazolam 1 mg single dose, GLE/PIB 300/120 mg once dally",1.27
COc1ccc2[nH]c([S+]([O-])Cc3ncc(C)c(OC)c3C)nc2c1 (stereo not shown) [Omeprazole],Central Value Ratio (90% CI) AUC,[1]; [10],0.79
same,Central Value Ratio (90% CI) Cmax,[1]; [10],0.57
Cc1nnc(C(=O)NC(C)(C)c2nc(C(=O)NCc3ccc(F)cc3)c(O)c(=O)n2C)o1 [Raltegravir],Central Value Ratio (90% CI) AUC,[1]; [11],1.47
same,Central Value Ratio (90% CI) Cmax,[1]; [11],1.34
same,Central Value Ratio (90% CI) Cmin,[1]; [11],2.64
Cc1cc(/C=C/C#N)cc(C)c1Nc1ccnc(Nc2ccc(C#N)cc2)n1 [Rilpivirine],Central Value Ratio (90% CI) AUC,[1]; [12],1.84
same,Central Value Ratio (90% CI) Cmax,[1]; [12],2.05
same,Central Value Ratio (90% CI) Cmin,[1]; [12],1.77
CCC(C)(C)C(=O)O[C@H]1C[C@@H](C)C=C2C=C[C@H](C)[C@H](CC[C@@H](O)C[C@@H](O)CC(=O)O)[C@H]21 [Simvastatin acid],Central Value Ratio (90% CI) AUC,[1]; [13],4.48
same,Central Value Ratio (90% CI) Cmax,[1]; [13],10.7
CC(C)OC(=O)[C@H](C)N[P@](=O)(OC[C@H]1O[C@@H](n2ccc(=O)[nH]c2=O)[C@](C)(F)[C@@H]1O)Oc1ccccc1 [Sofosbuvir],Central Value Ratio (90% CI) AUC,[1]; [7],2.25
same,Central Value Ratio (90% CI) Cmax,[1]; [7],1.66
C=CC[C@@H]1/C=C(\C)C[C@H](C)C[C@H](OC)[C@H]2O[C@@](O)(C(=O)C(=O)N3CCCC[C@H]3C(=O)O[C@H](/C(C)=C/[C@@H]3CC[C@@H](O)[C@H](OC)C3)[C@H](C)[C@@H](O)CC1=O)[C@H](C)C[C@@H]2OC [Tacrolimus],Central Value Ratio (90% CI) AUC,[1]; [14],1.45
same,Central Value Ratio (90% CI) Cmax,[1]; [14],1.50
C[C@H](Cn1cnc2c(N)ncnc21)OCP(=O)(O)O [Tenofovir],Central Value Ratio (90% CI) AUC,[1]; [15],1.29
same,Central Value Ratio (90% CI) Cmin,[1]; [15],1.38
CCCCC(=O)N(Cc1ccc(-c2ccccc2-c2nnn[nH]2)cc1)[C@H](C(=O)O)C(C)C [Valsartan],Central Value Ratio (90% CI) AUC,[1]; [16],1.31
same,Central Value Ratio (90% CI) Cmax,[1]; [16],1.36
[H]/N=C(/N)c1ccc(NCc2nc3cc(C(=O)N(CCC(=O)O)c4ccccn4)ccc3n2C)cc1 [dabigatran],Central Value Ratio (90% CI) AUC,[1]; [17],2.38
same,Central Value Ratio (90% CI) Cmax,[1]; [17],2.05
CC[C@H](C)C(=O)O[C@H]1C[C@@H](C)C=C2C=C[C@H](C)[C@H](CC[C@@H]3C[C@@H](O)CC(=O)O3)[C@H]21 [lovastatin],Central Value Ratio (90% CI) AUC,[1]; [9],1.70
CC[C@H](C)C(=O)O[C@H]1C[C@H](O)C=C2C=C[C@H](C)[C@H](CC[C@@H](O)C[C@@H](O)CC(=O)O)[C@H]21 [pravastatin],AUC increase,[2]; [18],2.3 fold
same,Cmax increase,[2]; [18],2.1 fold
same,Central Value Ratio (90% CI) AUC,[1]; [19],2.30
same,Central Value Ratio (90% CI) Cmax,[1]; [19],2.23
CC(C)c1nc(N(C)S(C)(=O)=O)nc(-c2ccc(F)cc2)c1/C=C/[C@@H](O)C[C@@H](O)CC(=O)O [rosuvastatin],AUC increase,[2]; [20],2.1 fold
same,Cmax increase,[2]; [20],5 fold
same,Central Value Ratio (90% CI) AUC,[1]; [21],2.15
same,Central Value Ratio (90% CI) Cmax,[1]; [21],5.62
CCC(C)(C)C(=O)O[C@H]1C[C@@H](C)C=C2C=C[C@H](C)[C@H](CC[C@@H]3C[C@@H](O)CC(=O)O3)[C@H]21 [simvastatin],Central Value Ratio (90% CI) AUC,[1]; [13],2.32
same,Central Value Ratio (90% CI) Cmax,[1]; [13],1.99
